Where “and” joins values, the source holds several entries; their conditions need not be identical. Equal entries are not always repeated. Where two headings read alike, the source gives them in different places.
Columns and labels:
Experiment in all cases: Kinase inhibitor specificity profiling (Reaction Biology Corporation)
Type in all cases: biochemical
Design in all cases: % Enzyme Activity (relative to DMSO controls): concentration or dose not given beside the values
[1] = molecular target: T1, panel of 370 protein kinases (Homo sapiens, UniProt Q8IYT8); conditions: 2 h, kinase ULK2; read-out: % Enzyme Activity (relative to DMSO controls)
T1 construct: purchased Reaction Biology Corporation (assay service)

[2] = molecular target: T2, panel of 370 protein kinases (Homo sapiens, UniProt Q9UKE5); conditions: 2 h, kinase TNIK; read-out: % Enzyme Activity (relative to DMSO controls)
T2 construct: purchased Reaction Biology Corporation (assay service)

[3] = molecular target: T3, panel of 370 protein kinases (Homo sapiens, UniProt Q8WXR4); conditions: 2 h, kinase MYO3b; read-out: % Enzyme Activity (relative to DMSO controls)
T3 construct: purchased Reaction Biology Corporation (assay service)

[4] = molecular target: T4, panel of 370 protein kinases (Homo sapiens, UniProt Q6VAB6); conditions: 2 h, kinase KSR2; read-out: % Enzyme Activity (relative to DMSO controls)
T4 construct: purchased Reaction Biology Corporation (assay service)

[5] = tested on: panel of 370 protein kinases
[6] = molecular target: T5, panel of 370 protein kinases (Homo sapiens, UniProt Q5VT25); conditions: 2 h, kinase MRCKa/CDC42BPA; read-out: % Enzyme Activity (relative to DMSO controls)
T5 construct: purchased Reaction Biology Corporation (assay service)

[7] = molecular target: T6, panel of 370 protein kinases (Homo sapiens, UniProt Q9BUB5); conditions: 2 h, kinase MNK1; read-out: % Enzyme Activity (relative to DMSO controls)
T6 construct: purchased Reaction Biology Corporation (assay service)

[8] = molecular target: T7, panel of 370 protein kinases (Homo sapiens, UniProt Q8NE63); conditions: 2 h, kinase HIPK4; read-out: % Enzyme Activity (relative to DMSO controls)
T7 construct: purchased Reaction Biology Corporation (assay service)

[9] = molecular target: T8, panel of 370 protein kinases (Homo sapiens, UniProt P57059); conditions: kinase SIK1
T8 construct: purchased Reaction Biology Corporation (assay service)
T8 sequence (P57059 whole entry): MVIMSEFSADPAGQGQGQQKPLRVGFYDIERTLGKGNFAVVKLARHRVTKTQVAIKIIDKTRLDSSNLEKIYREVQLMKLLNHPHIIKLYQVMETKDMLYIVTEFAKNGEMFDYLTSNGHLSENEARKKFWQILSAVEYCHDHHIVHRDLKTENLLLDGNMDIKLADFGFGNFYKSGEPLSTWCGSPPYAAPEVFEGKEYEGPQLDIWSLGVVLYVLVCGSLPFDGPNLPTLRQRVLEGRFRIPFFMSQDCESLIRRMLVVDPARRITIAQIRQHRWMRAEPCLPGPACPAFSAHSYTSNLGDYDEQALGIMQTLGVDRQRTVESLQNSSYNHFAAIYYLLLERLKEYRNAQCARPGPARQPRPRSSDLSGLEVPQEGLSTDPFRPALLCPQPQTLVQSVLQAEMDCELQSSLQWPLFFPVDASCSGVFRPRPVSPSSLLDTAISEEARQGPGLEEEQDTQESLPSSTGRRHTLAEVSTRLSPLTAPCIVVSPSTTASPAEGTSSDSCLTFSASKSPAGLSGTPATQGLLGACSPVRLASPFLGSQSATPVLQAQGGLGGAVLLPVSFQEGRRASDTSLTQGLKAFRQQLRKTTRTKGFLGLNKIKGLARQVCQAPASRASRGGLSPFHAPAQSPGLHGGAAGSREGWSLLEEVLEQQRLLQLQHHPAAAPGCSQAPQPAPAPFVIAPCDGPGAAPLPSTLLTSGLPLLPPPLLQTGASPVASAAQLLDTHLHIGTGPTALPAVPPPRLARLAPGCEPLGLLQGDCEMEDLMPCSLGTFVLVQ

[10] = molecular target: T9, panel of 370 protein kinases (Homo sapiens, UniProt O96013); conditions: 2 h, kinase PAK4; read-out: % Enzyme Activity (relative to DMSO controls)
T9 construct: purchased Reaction Biology Corporation (assay service)

[11] = molecular target: T10, panel of 370 protein kinases (Homo sapiens, UniProt P51817); conditions: 2 h, kinase PRKX; read-out: % Enzyme Activity (relative to DMSO controls)
T10 construct: purchased Reaction Biology Corporation (assay service)

[12] = molecular target: T11, panel of 370 protein kinases (Homo sapiens, UniProt Q9Y2K2); conditions: kinase SIK3
T11 construct: purchased Reaction Biology Corporation (assay service)
T11 sequence (Q9Y2K2 whole entry): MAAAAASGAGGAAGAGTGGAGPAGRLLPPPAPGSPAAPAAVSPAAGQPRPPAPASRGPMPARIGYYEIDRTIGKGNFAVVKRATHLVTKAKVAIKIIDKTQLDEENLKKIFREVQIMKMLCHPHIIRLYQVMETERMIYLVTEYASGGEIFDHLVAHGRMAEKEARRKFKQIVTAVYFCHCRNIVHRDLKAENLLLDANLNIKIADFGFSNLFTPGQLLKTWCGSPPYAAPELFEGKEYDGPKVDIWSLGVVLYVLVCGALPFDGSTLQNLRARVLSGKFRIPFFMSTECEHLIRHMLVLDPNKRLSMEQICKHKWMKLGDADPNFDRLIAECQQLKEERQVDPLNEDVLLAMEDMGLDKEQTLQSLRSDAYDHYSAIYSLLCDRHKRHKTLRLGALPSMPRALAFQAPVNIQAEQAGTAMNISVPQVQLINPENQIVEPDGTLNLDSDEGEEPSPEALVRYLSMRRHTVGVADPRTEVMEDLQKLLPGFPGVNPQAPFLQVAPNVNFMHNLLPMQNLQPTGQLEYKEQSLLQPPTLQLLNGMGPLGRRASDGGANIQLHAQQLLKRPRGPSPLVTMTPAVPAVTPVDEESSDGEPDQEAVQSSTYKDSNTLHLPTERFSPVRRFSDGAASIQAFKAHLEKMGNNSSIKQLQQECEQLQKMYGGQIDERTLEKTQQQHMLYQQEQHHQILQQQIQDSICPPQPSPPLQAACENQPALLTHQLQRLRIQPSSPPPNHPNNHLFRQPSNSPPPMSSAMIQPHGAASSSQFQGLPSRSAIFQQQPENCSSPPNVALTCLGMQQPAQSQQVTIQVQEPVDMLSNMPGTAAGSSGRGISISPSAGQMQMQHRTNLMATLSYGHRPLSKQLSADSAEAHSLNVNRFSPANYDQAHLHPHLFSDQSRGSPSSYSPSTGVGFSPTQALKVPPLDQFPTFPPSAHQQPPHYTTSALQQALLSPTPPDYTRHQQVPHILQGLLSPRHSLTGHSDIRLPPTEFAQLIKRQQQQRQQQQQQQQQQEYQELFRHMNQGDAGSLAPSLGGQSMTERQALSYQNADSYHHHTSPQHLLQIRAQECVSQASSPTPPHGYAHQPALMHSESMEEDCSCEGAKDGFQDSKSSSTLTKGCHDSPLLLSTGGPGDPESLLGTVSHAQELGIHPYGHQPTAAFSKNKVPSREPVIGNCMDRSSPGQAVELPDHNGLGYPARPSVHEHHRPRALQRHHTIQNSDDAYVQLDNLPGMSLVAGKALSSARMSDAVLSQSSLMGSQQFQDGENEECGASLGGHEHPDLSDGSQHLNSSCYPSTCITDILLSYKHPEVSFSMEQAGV

[13] = molecular target: T12, panel of 370 protein kinases (Homo sapiens, UniProt O00238); conditions: 2 h, kinase ALK6/BMPR1B; read-out: % Enzyme Activity (relative to DMSO controls)
T12 construct: purchased Reaction Biology Corporation (assay service)

[14] = molecular target: T13, panel of 370 protein kinases (Homo sapiens, UniProt P06493); conditions: 2 h, read-out: % Enzyme Activity (relative to DMSO controls)
T13 construct: purchased Reaction Biology Corporation (assay service)
T13 sequence (P06493 whole entry): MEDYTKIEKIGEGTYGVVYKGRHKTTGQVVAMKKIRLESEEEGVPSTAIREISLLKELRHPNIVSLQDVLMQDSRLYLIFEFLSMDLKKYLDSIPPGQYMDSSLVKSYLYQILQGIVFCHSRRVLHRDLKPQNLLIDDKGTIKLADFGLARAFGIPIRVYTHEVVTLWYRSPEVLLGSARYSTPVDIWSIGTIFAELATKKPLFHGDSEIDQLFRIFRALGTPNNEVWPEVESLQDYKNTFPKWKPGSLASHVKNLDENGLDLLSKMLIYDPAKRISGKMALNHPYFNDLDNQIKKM

[15] = molecular target: T14, panel of 370 protein kinases (Homo sapiens, UniProt Q9NRM7); conditions: kinase LATS2
T14 construct: purchased Reaction Biology Corporation (assay service)
T14 sequence (Q9NRM7 whole entry): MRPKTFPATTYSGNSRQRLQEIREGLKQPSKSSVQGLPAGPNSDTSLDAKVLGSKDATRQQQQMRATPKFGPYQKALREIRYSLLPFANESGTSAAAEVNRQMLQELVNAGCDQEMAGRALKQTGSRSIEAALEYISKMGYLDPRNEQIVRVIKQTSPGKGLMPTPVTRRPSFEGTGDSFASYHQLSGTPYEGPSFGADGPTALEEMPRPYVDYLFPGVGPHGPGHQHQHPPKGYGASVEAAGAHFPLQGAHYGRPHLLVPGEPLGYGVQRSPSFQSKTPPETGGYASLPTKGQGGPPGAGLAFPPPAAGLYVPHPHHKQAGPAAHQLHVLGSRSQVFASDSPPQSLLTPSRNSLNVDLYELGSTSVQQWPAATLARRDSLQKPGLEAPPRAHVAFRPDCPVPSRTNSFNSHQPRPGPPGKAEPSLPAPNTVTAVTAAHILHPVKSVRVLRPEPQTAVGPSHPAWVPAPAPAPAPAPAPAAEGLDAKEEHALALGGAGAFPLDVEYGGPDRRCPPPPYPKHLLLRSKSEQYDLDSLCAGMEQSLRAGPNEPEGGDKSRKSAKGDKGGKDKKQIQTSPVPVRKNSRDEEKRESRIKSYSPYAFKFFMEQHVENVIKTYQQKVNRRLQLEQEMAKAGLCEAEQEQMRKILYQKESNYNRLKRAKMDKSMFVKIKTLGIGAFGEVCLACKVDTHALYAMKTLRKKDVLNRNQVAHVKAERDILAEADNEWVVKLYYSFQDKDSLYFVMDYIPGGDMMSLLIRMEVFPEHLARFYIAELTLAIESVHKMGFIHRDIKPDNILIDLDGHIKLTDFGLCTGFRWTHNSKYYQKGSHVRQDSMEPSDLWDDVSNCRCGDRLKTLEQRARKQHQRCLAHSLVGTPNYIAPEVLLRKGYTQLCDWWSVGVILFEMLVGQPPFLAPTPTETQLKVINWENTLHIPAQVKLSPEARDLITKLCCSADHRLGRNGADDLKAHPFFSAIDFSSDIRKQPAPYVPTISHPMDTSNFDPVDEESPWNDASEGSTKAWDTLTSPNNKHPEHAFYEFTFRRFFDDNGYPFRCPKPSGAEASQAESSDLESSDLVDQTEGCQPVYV

[16] = molecular target: T15, panel of 370 protein kinases (Homo sapiens, UniProt Q8IWQ3); conditions: 2 h, kinase BRSK2; read-out: % Enzyme Activity (relative to DMSO controls)
T15 construct: purchased Reaction Biology Corporation (assay service)

[17] = molecular target: T16, panel of 370 protein kinases (Homo sapiens, UniProt P51813); conditions: 2 h, kinase BMX/ETK; read-out: % Enzyme Activity (relative to DMSO controls)
T16 construct: purchased Reaction Biology Corporation (assay service)

[18] = molecular target: T17, panel of 370 protein kinases (Homo sapiens, UniProt Q12851); conditions: 2 h, kinase GCK/MAP4K2; read-out: % Enzyme Activity (relative to DMSO controls)
T17 construct: purchased Reaction Biology Corporation (assay service)

[19] = molecular target: T18, panel of 370 protein kinases (Homo sapiens, UniProt P48729); conditions: 2 h, kinase CK1a1; read-out: % Enzyme Activity (relative to DMSO controls)
T18 construct: purchased Reaction Biology Corporation (assay service)

[20] = molecular target: T19, panel of 370 protein kinases (Homo sapiens, UniProt Q8N4C8); conditions: 2 h, kinase MINK/MINK1; read-out: % Enzyme Activity (relative to DMSO controls)
T19 construct: purchased Reaction Biology Corporation (assay service)
T19 sequence (Q8N4C8 whole entry): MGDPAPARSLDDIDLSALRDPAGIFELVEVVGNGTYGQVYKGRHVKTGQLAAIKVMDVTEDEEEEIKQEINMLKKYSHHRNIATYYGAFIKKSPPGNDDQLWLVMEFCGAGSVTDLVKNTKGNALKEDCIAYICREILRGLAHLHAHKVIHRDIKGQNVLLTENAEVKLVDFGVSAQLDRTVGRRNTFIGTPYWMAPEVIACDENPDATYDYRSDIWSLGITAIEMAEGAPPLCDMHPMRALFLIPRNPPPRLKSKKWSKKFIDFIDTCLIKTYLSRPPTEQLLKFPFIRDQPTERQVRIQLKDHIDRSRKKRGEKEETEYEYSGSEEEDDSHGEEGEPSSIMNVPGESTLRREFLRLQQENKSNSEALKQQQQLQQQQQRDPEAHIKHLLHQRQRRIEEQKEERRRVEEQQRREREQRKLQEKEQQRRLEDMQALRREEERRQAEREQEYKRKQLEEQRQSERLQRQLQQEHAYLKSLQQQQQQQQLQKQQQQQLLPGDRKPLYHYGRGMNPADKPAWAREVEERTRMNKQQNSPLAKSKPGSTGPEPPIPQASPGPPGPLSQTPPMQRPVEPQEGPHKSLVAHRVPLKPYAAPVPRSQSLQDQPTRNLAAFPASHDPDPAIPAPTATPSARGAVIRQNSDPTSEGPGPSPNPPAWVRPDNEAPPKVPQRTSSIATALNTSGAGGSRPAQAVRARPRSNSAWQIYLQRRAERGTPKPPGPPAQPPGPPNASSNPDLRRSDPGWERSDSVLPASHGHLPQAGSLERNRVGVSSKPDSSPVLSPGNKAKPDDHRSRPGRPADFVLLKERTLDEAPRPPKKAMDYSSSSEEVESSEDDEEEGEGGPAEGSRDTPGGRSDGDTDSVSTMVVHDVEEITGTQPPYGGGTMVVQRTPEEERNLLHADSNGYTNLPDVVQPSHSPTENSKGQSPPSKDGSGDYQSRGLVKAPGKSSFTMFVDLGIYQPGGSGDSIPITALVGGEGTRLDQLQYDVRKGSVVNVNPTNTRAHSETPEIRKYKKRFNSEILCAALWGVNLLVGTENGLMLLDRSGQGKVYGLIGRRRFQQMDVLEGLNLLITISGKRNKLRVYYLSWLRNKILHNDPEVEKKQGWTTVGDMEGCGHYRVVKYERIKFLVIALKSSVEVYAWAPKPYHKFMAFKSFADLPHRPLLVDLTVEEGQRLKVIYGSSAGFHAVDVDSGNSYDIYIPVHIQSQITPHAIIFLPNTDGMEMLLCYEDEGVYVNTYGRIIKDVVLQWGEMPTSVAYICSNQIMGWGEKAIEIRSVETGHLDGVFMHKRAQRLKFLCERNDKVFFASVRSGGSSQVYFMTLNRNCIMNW

[21] = molecular target: T20, panel of 370 protein kinases (Homo sapiens, UniProt Q56UN5); conditions: 2 h, kinase YSK4/MAP3K19; read-out: % Enzyme Activity (relative to DMSO controls)
T20 construct: purchased Reaction Biology Corporation (assay service)

## CCN1CCN(C(=O)c2ccc(Nc3ncc(F)c(-c4ccc5nc(N(C)C)sc5c4)n3)nc2)CC1 [YK-2-69]
[1]
  remaining activity at 1 µM: 97.9%
[2]
  remaining activity at 1 µM: 70.5%
[3]
  remaining activity at 1 µM: 106%
[4]
  remaining activity at 1 µM: 93%
[5]; 1 µM
  kinase selectivity against 370 kinases: selectivity over 360+ kinases
[5]; kinase LYN B
  % Enzyme Activity (relative to DMSO controls): 102.77% and 100.49%
[5]; kinase PKCb2
  % Enzyme Activity (relative to DMSO controls): 92.22% and 91.87%
[5]; kinase PKG1b
  % Enzyme Activity (relative to DMSO controls): 114.44% and 107.54%
[6]
  remaining activity at 1 µM: 111%
[7]
  remaining activity at 1 µM: 89.6%
[8]
  remaining activity at 1 µM: 56.5%
[9]
  % Enzyme Activity (relative to DMSO controls): 99.48% and 98.60%
[10]
  remaining activity at 1 µM: 108%
[11]
  remaining activity at 1 µM: 95.1%
[12]
  % Enzyme Activity (relative to DMSO controls): 100.12% and 97.59%
[13]
  remaining activity at 1 µM: 90.5%
[14]; kinase CDK1/cyclin A
  remaining activity at 1 µM: 116%
[14]; kinase CDK1/cyclin B
  remaining activity at 1 µM: 119%
[14]; kinase CDK1/cyclin E
  remaining activity at 1 µM: 103%
[15]
  % Enzyme Activity (relative to DMSO controls): 96.27% and 92.88%
[16]
  remaining activity at 1 µM: 96.3%
[17]
  remaining activity at 1 µM: 80.6%
[18]
  remaining activity at 1 µM: 96%
[19]
  remaining activity at 1 µM: 82%
[20]
  remaining activity at 1 µM: 100%
[21]
  remaining activity at 1 µM: 97.8%

Reference: article PMC9133015 (Nature Communications, 2022)
